Results as given in ChEMBL document CHEMBL5038611, “Design, synthesis and bioevaluation of 6-aryl-1-(3,4,5-trimethoxyphenyl)-1H-benzo[d]imidazoles as tubulin polymerization inhibitors” (Eur J Med Chem, 2021).
pIC50: −log10 of the molar value. One block for each compound: values may come before it. Active and inactive are the calls of the source. The rule behind the calls is not given here.

Key:
MCF7 [1] = assay: Antiproliferative activity against human MCF7 cells assessed as reduction in cell viability incubated for 72 hrs by MTT assay; format: functional, cell-based; conditions: MCF7, 72 h
SGC-7901 = assay: Antiproliferative activity against human SGC-7901 cells assessed as reduction in cell viability incubated for 72 hrs by MTT assay; format: functional, cell-based; conditions: SGC-7901, 72 h
A549 = assay: Antiproliferative activity against human A549 cells assessed as reduction in cell viability incubated for 72 hrs by MTT assay; format: functional, cell-based; conditions: A549, 72 h
[2] = Toxicity in BALB/c nude mouse xenografted with human MCF7 cells assessed as effect on spleen at 10 mg/kg, iv administered every 2 days for 2 weeks; format: organism-based; conditions: in vivo, 336 h
MCF7 [3] = assay: Induction of apoptosis in human MCF7 cells assessed as early apoptotic cells at 1 fold IC50 after 48 hrs by Annexin-V-FITC/PI-staining based flow cytometric analysis (reference value: 1.59%); format: functional
MCF7 [4] = assay: Inhibition of cell migration in human MCF7 cells measured after 24 hrs by phase-contrast microscopy based wound healing assay; format: functional; conditions: dose 25-50 nM
MCF7 [5] = assay: Induction of cell cycle arrest in human MCF7 cells assessed as accumulation of cells at G2/M phase at 0.5 fold IC50 measured after 24 hrs by flow cytometry (reference value: 11 %); format: functional
MCF7 [6] = assay: Induction of apoptosis in human MCF7 cells assessed as late apoptotic cells at 3 fold IC50 after 48 hrs by Annexin-V-FITC/PI-staining based flow cytometric analysis (reference value: 0.556%); format: functional
[7] = Toxicity in BALB/c nude mouse xenografted with human MCF7 cells assessed as effect on liver at 2.5 mg/kg, iv administered every 2 days for 2 weeks; format: organism-based; conditions: in vivo, 336 h
MCF7 [8] = assay: Induction of apoptosis in human MCF7 cells assessed as early apoptotic cells at 2 fold IC50 after 48 hrs by Annexin-V-FITC/PI-staining based flow cytometric analysis (reference value: 1.59%); format: functional
[9] = Toxicity in BALB/c nude mouse xenografted with human MCF7 cells assessed as effect on heart at 2.5 mg/kg, iv administered every 2 days for 2 weeks; format: organism-based; conditions: in vivo, 336 h
MCF7 [10] = assay: Induction of apoptosis in human MCF7 cells assessed as late apoptotic cells at 1 fold IC50 after 48 hrs by Annexin-V-FITC/PI-staining based flow cytometric analysis (reference value: 0.556%); format: functional
MCF7 [11] = assay: Induction of apoptosis in human MCF7 cells assessed as necrotic cells at 2 fold IC50 after 48 hrs by Annexin-V-FITC/PI-staining based flow cytometric analysis (reference value: 1.61%); format: functional
[12] = Toxicity in BALB/c nude mouse xenografted with human MCF7 cells assessed as effect on spleen at 2.5 mg/kg, iv administered every 2 days for 2 weeks; format: organism-based; conditions: in vivo, 336 h
MCF7 [13] = assay: Induction of apoptosis in human MCF7 cells assessed as early apoptotic cells at 3 fold IC50 after 48 hrs by Annexin-V-FITC/PI-staining based flow cytometric analysis (reference value: 1.59%); format: functional
MCF7 [14] = assay: Induction of apoptosis in human MCF7 cells assessed as viable cells at 2 fold IC50 after 48 hrs by Annexin-V-FITC/PI-staining based flow cytometric analysis (reference value: 96.2%); format: functional
[15] = Toxicity in BALB/c nude mouse xenografted with mouse 4T1 cells assessed as body weight loss at 2.5 mg/kg, iv administered every 2 days for 2 weeks relative to control; format: organism-based; conditions: in vivo, 336 h
MCF7 [16] = assay: Induction of cell cycle arrest in human MCF7 cells assessed as accumulation of cells at G2/M phase at 2 fold IC50 measured after 24 hrs by flow cytometry (reference value: 11 %); format: functional
MCF7 [17] = assay: Induction of apoptosis in human MCF7 cells assessed as necrotic cells at 1 fold IC50 after 48 hrs by Annexin-V-FITC/PI-staining based flow cytometric analysis (reference value: 1.61%); format: functional
MCF7 [18] = assay: Induction of apoptosis in human MCF7 cells assessed as viable cells at 3 fold IC50 after 48 hrs by Annexin-V-FITC/PI-staining based flow cytometric analysis (reference value: 96.2%); format: functional
Tubulin (Homo sapiens) [19] = target: T1, Tubulin (Homo sapiens) (UniProt P68371+Q9H4B7+P0DPH7+P68366+Q13509+Q71U36+P04350+Q3ZCM7+P07437+P68363+Q9BQE3+Q6PEY2+Q13885+Q9BVA1+Q9BUF5); assay: Binding affinity to colchicine binding site of tubulin (unknown origin) assessed as decrease in fluorescence of colchicine-tubulin complex by fluorescence based assay; format: protein-complex assay
Tubulin (Homo sapiens) [20] = target: T1, Tubulin (Homo sapiens); assay: Inhibition of microtubule polymerization in human MCF7 cells assessed as disorganisation of microtubule by measuring short and wrapped structure at 2 times IC50 incubated for 24 hrs by DAPI staining based immunofluorescence assay; format: cell-based
MCF7 [21] = assay: Induction of cell cycle arrest in human MCF7 cells assessed as accumulation of cells at G2/M phase at 1 fold IC50 measured after 24 hrs by flow cytometry (reference value: 11 %); format: functional
Sus scrofa = species on record: Sus scrofa; assay: Inhibition of porcine brain tubulin polymerization measured every 1 min for 90 mins by microplate based assay in the presence of GTP
4T1 = assay: Antitumor activity against mouse 4T1 cells xenografted in BALB/c mouse assessed as reduction in tumor weight at 2.5 mg/kg, iv administered every 2 days for 2 weeks; format: functional; design: scale not given: the % may be the effect or the level left
MCF7 [22] = assay: Induction of apoptosis in human MCF7 cells assessed as viable cells at 1 fold IC50 after 48 hrs by Annexin-V-FITC/PI-staining based flow cytometric analysis (reference value: 96.2%); format: functional
MCF7 [23] = assay: Induction of apoptosis in human MCF7 cells assessed as necrotic cells at 3 fold IC50 after 48 hrs by Annexin-V-FITC/PI-staining based flow cytometric analysis (reference value: 1.61%); format: functional
MCF7 [24] = assay: Induction of apoptosis in human MCF7 cells assessed as late apoptotic cells at 2 fold IC50 after 48 hrs by Annexin-V-FITC/PI-staining based flow cytometric analysis (reference value: 0.556%); format: functional
[25] = Toxicity in BALB/c nude mouse xenografted with human MCF7 cells assessed as effect on kidney at 2.5 mg/kg, iv administered every 2 days for 2 weeks; format: organism-based; conditions: in vivo, 336 h

pIC50 (MCF7 [1]): < 5.00
pIC50 (SGC-7901): < 5.00
pIC50 (A549): < 5.00
SMILES: COc1cc(-n2cnc3ccc(-c4ccccc4Cl)cc32)cc(OC)c1OC

pIC50 (MCF7 [1]): 6.46
pIC50 (SGC-7901): 7.28
pIC50 (A549): 6.60
SMILES: COc1cc(-n2cnc3ccc(-c4cccc(O)c4)cc32)cc(OC)c1OC

pIC50 (MCF7 [1]): 5.63
pIC50 (SGC-7901): 5.60
pIC50 (A549): 5.28
SMILES: COc1cc(-n2cnc3ccc(-c4cccc(F)c4)cc32)cc(OC)c1OC

pIC50 (MCF7 [1]): 5.34
pIC50 (SGC-7901): 6.42
pIC50 (A549): 5.27
SMILES: COc1cc(-n2cnc3ccc(-c4cccc([N+](=O)[O-])c4)cc32)cc(OC)c1OC

pIC50 (MCF7 [1]): 7.25
pIC50 (SGC-7901): 5.25
pIC50 (A549): < 5.00
SMILES: COc1cc(-n2cnc3ccc(-c4ccc(C)cc4F)cc32)cc(OC)c1OC

SMILES: Nc1ccn([C@@H]2O[C@H](CO)[C@@H](O)C2(F)F)c(=O)n1 [GEMCITABINE]
Activity [2]: Toxic

pIC50 (MCF7 [1]): 5.51
pIC50 (SGC-7901): 5.83
pIC50 (A549): 5.15
SMILES: COc1cc(-n2cnc3ccc(-c4cccc(Cl)c4)cc32)cc(OC)c1OC

pIC50 (MCF7 [1]): 5.27
pIC50 (SGC-7901): < 5.00
pIC50 (A549): < 5.00
SMILES: COc1cc(-n2cnc3ccc(-c4ccc(Cl)cc4Cl)cc32)cc(OC)c1OC

pIC50 (MCF7 [1]): 6.12
pIC50 (SGC-7901): 6.05
pIC50 (A549): 5.47
SMILES: COc1cc(-n2cnc3ccc(-c4ccc(C(F)(F)F)cc4)cc32)cc(OC)c1OC

pIC50 (MCF7 [1]): 5.79
pIC50 (SGC-7901): 5.48
pIC50 (A549): 5.50
SMILES: COc1cccc(-c2ccc3ncn(-c4cc(OC)c(OC)c(OC)c4)c3c2)c1

SMILES: COc1cc2c(c(OC)c1OC)-c1ccc(OC)c(=O)cc1[C@@H](NC(C)=O)CC2 [COLCHICINE]
pIC50 (MCF7 [1]): 7.74
pIC50 (SGC-7901): 8.15
pIC50 (A549): 7.02

pIC50 (MCF7 [1]): 6.96
pIC50 (SGC-7901): 6.70
pIC50 (A549): 5.71
SMILES: COc1cc(-n2cnc3ccc(-c4ccc(C)cc4)cc32)cc(OC)c1OC

pIC50 (MCF7 [1]): < 5.00
pIC50 (SGC-7901): < 5.00
pIC50 (A549): < 5.00
SMILES: COc1cc(-c2ccc3ncn(-c4cc(OC)c(OC)c(OC)c4)c3c2)cc(OC)c1OC

pIC50 (MCF7 [1]): 5.81
pIC50 (SGC-7901): 6.35
pIC50 (A549): 5.60
SMILES: COc1cc(-n2cnc3ccc(-c4ccc(C(C)=O)cc4)cc32)cc(OC)c1OC

pIC50 (MCF7 [1]): 5.76
pIC50 (SGC-7901): 5.30
pIC50 (A549): 5.36
SMILES: COc1ccccc1-c1ccc2ncn(-c3cc(OC)c(OC)c(OC)c3)c2c1

pIC50 (MCF7 [1]): 7.43
Activity (Tubulin (Homo sapiens) [19]): Active
inhibition (Tubulin (Homo sapiens) [20]): Active
pIC50 (SGC-7901): 7.36
pIC50 (A549): 6.70
inhibition (Sus scrofa): Dose-Dependent Effect
SMILES: COc1ccc(-c2ccc3ncn(-c4cc(OC)c(OC)c(OC)c4)c3c2)cc1O
Activity (MCF7 [3]): 16%
inhibition (MCF7 [4]): Dose-Dependent Effect
Activity (MCF7 [5]): 15%
Activity (MCF7 [6]): 11.4%
Activity [7]: Non-Toxic
Activity (MCF7 [8]): 35.6%
Activity [9]: Non-Toxic
Activity (MCF7 [10]): 4.4%
Activity (MCF7 [11]): 0.96%
Activity [12]: Non-Toxic
Activity (MCF7 [13]): 37.6%
Activity (MCF7 [14]): 52.8%
Activity [15]: Non-Toxic
Activity (MCF7 [16]): 72%
Activity (MCF7 [17]): 1.51%
Activity (MCF7 [18]): 50.6%
Activity (MCF7 [21]): 22%
Activity (4T1): 52%
Activity (MCF7 [22]): 75.1%
Activity (MCF7 [23]): 0.271%
Activity (MCF7 [24]): 10.4%
Activity [25]: Non-Toxic

pIC50 (MCF7 [1]): 5.19
pIC50 (SGC-7901): 5.18
pIC50 (A549): 5.10
SMILES: COc1cc(-n2cnc3ccc(-c4cc(F)ccc4F)cc32)cc(OC)c1OC

pIC50 (MCF7 [1]): 5.75
pIC50 (SGC-7901): 5.46
pIC50 (A549): 5.17
SMILES: COc1cc(-n2cnc3ccc(-c4ccc(F)cc4)cc32)cc(OC)c1OC

pIC50 (MCF7 [1]): 6.68
pIC50 (SGC-7901): 7.09
pIC50 (A549): < 5.00
SMILES: COc1ccc(-c2ccc3ncn(-c4cc(OC)c(OC)c(OC)c4)c3c2)cc1

pIC50 (MCF7 [1]): 5.64
pIC50 (SGC-7901): 6.54
pIC50 (A549): 5.51
SMILES: COc1cc(-n2cnc3ccc(-c4ccccc4)cc32)cc(OC)c1OC

pIC50 (MCF7 [1]): 5.88
pIC50 (SGC-7901): 5.90
pIC50 (A549): < 5.00
SMILES: COc1cc(-n2cnc3ccc(-c4ccc(Cl)cc4)cc32)cc(OC)c1OC

pIC50 (MCF7 [1]): 5.67
pIC50 (SGC-7901): 5.52
pIC50 (A549): 5.03
SMILES: COc1cc(-n2cnc3ccc(-c4cccc(C)c4C)cc32)cc(OC)c1OC

pIC50 (MCF7 [1]): 5.77
pIC50 (SGC-7901): 5.53
pIC50 (A549): 5.07
SMILES: CCOc1ccc(-c2ccc3ncn(-c4cc(OC)c(OC)c(OC)c4)c3c2)cc1

pIC50 (MCF7 [1]): 6.44
pIC50 (SGC-7901): 5.91
pIC50 (A549): 5.42
SMILES: COc1cc(-n2cnc3ccc(-c4cccc(C)c4)cc32)cc(OC)c1OC

pIC50 (MCF7 [1]): 5.38
pIC50 (SGC-7901): < 5.00
pIC50 (A549): 5.29
SMILES: COc1cc(-n2cnc3ccc(-c4ccc(O)cc4)cc32)cc(OC)c1OC

pIC50 (MCF7 [1]): 6.74
pIC50 (SGC-7901): 7.68
pIC50 (A549): 6.19
SMILES: COc1cc(-n2cnc3ccc(-c4cccc(N)c4)cc32)cc(OC)c1OC

pIC50 (MCF7 [1]): 6.13
pIC50 (SGC-7901): 7.10
pIC50 (A549): 5.05
SMILES: COc1cc(-n2cnc3ccc(-c4ccc([N+](=O)[O-])cc4)cc32)cc(OC)c1OC

pIC50 (MCF7 [1]): 6.28
pIC50 (SGC-7901): 6.37
pIC50 (A549): 5.84
SMILES: COc1ccc(-c2ccc3ncn(-c4cc(OC)c(OC)c(OC)c4)c3c2)cc1F
